This note sets out measurements from patent publication US9920014B2, “Selective inhibition of bacterial topoisomerase I” (THE FLORIDA INTERNATIONAL BOARD OF TRUSTEES MODESTO A. …, priority 2013, dated 2018).

The structures appear in SMILES notation. Converted amounts (≈) assume the structure as drawn.

For assay [1], the target named is E. coli DNA topoisomerase I (Escherichia coli, UniProt P06612). Nature of the assay: Inhibition assay against E. coli DNA topoisomerase I (plasmid relaxation, agarose gel). The assay is classed as biochemical. The settings on record: 6 nM enzyme; for IC50: supercoiled pBAD-GFPuv, 15 min 37° C., average of at least three determinations, read-out: IC50 ecTopo I; for concentration needed to completely inhibit the activities of E. coli DNA topoisomerase I: gel titration (FIG. 3A, 3B). How it is done:
Inhibition Assays Against E. coli DNA Topoisomerase I:
Inhibition assays were used to determine the activities of the newly synthesized compounds against E. coli DNA topoisomerase I. The reaction mixture (30 μl) contained 20 mM Tris-HCl at pH 7.9, 50 mM KAc, 10 mM Mg(Ac)2, 1 mM DTT, 1 μg/mL BSA, 150 ng of the supercoiled plasmid pBAD-GFPuv, 6 nM of E. coli topoisomerase I, and one of the compounds at a specified concentration that ranges from 0.5 to 45 μM. All components were assembled on ice and incubated for 15 min at 37° C. After the incubation, the reactions were terminated by extraction with an equal volume of phenol. The topological state of the DNA samples was analyzed with 1% agarose gel electrophoresis in 1×TAE buffer, pH 7.8. Following electrophoresis, the agarose gel was stained with Ethidium Bromide, destained, and photographed under UV light. The intensity of DNA topoisomers was determined using KODAK 1D Image Analysis Software. The percentage of (−) supercoiled DNA was calculated from a comparison of the intensity of the (−) supercoiled band with the total intensity of all DNA topoisomers. The IC50 was calculated as the amount of the drug for which 50% of the DNA was still in a (−) supercoiled state.

Assay [2] has as its target T1, human DNA topoisomerase I (Homo sapiens, UniProt P11387).
T1 sequence (P11387 1-765): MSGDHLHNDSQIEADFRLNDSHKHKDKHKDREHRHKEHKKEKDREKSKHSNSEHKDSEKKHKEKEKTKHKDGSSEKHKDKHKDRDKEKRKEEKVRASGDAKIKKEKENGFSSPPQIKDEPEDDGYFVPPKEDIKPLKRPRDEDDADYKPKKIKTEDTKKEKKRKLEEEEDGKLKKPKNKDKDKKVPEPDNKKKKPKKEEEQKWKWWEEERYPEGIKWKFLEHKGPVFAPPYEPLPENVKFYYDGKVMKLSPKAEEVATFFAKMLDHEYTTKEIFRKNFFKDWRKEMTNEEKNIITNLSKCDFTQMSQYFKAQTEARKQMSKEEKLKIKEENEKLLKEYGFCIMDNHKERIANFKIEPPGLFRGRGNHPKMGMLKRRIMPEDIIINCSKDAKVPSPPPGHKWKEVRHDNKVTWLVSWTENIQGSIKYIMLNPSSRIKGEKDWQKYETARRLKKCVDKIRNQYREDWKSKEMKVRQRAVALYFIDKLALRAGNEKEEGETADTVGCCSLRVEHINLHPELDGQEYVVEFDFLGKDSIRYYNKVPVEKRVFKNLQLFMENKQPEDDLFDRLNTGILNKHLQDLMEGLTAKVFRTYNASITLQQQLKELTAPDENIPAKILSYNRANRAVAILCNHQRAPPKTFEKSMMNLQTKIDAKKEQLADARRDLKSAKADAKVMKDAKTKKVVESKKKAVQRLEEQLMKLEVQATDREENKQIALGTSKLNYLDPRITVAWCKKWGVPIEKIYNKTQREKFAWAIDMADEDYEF
Nature of the assay: Inhibition assay against human DNA topoisomerase I (plasmid relaxation, agarose gel). The settings on record: for IC50: 2 units enzyme, supercoiled pBAD-GFPuv, 30 min 37° C., read-out: IC50 hTopo I; for supercoiled DNA template prevented from relaxation by human DNA topoisomerase I: 50 μM compound. In kind it is biochemical. How it is done:
Inhibition Assays Against Human DNA Topoisomerase I:
The inhibition assays were used to determine the activities of the newly synthesized compounds against Human DNA topoisomerase I. The reaction mixture (25 μl) contained 20 mM Tris-HCl at pH 7.9, 50 mM KAc, 10 mM Mg(Ac)2, 1 mM DTT, 1 μg/ml BSA, 250 ng of the supercoiled plasmid pBAD-GFPuv, 2 units of Human DNA topoisomerase I, and one of the compounds at a final concentration that ranges from 5 to 50 μM. All components were assembled on ice and incubated for 30 minutes at 37° C. After the incubation, the reactions were terminated by extraction with an equal volume of phenol. The topological state of the DNA samples was analyzed with 1% agarose gel electrophoresis in 1×TAE buffer, pH 7.8. Following electrophoresis, the agarose gel was stained with Ethidium Bromide, destained, and photographed under UV light. The intensity of DNA topoisomers was determined using KODAK 1D Image Analysis Software. The percentage of (−) supercoiled DNA was calculated from a comparison of the intensity of the (−) supercoiled band with the total intensity of all DNA topoisomers. The IC50 was calculated as the amount of the drug for which 50% of the DNA was in a (−) supercoiled state.

The subject of a further assay is Escherichia coli K12. Nature of the assay: MIC by microbroth dilution, E. coli K12. The settings on record: for MIC: Escherichia coli, K12, 24 h 37° C., read-out: MIC S5 = E. coli K 12; for MIC S5 = E. coli K 12: 24 h 37° C. In kind it is cell-based. On the procedure:
Minimum Inhibitory Concentration (MIC) Determination:
Bacteria used in this study were Staphylococcus aureus ATCC 29213, Escherichia coli ATCC 25922, Escherichia coli K12, Staphylococcus aureus ATCC 33591, Pseudomonas aeruginosa ATCC 27853, and Enterococcus faecalis ATCC 29212. All compounds were tested by the microbroth dilution method following Clinical and Laboratory Standards Institute guidelines. Briefly, Mueller-Hinton broth (Difco Laboratories, Becton Dickinson) was inoculated with each organism and incubated at 37° C. with shaking to establish logarithmic growth. Following incubation, each culture was pelleted by centrifugation (3,500×g for 5 min) and resuspended in 0.85% sterile saline solution to an optical density at 625 nm of 0.1. Samples were tested in triplicate using 96 well microplates (Corning Costar Corp. Cambridge, Mass.), yielding final bacterial concentrations of 5×10^5 CFU/mL, and incubated for 24 h at 37° C. Following incubation, optical densities of each well were determined with a μQuant microplate spectrophotometer (BioTek Instruments, Inc., Winooski, Vt.) at 625 nm.
For orientation: Dilution methods test growth across graded concentrations, often in twofold steps.

Chain of E. coli DNA topoisomerase I (P06612 whole entry): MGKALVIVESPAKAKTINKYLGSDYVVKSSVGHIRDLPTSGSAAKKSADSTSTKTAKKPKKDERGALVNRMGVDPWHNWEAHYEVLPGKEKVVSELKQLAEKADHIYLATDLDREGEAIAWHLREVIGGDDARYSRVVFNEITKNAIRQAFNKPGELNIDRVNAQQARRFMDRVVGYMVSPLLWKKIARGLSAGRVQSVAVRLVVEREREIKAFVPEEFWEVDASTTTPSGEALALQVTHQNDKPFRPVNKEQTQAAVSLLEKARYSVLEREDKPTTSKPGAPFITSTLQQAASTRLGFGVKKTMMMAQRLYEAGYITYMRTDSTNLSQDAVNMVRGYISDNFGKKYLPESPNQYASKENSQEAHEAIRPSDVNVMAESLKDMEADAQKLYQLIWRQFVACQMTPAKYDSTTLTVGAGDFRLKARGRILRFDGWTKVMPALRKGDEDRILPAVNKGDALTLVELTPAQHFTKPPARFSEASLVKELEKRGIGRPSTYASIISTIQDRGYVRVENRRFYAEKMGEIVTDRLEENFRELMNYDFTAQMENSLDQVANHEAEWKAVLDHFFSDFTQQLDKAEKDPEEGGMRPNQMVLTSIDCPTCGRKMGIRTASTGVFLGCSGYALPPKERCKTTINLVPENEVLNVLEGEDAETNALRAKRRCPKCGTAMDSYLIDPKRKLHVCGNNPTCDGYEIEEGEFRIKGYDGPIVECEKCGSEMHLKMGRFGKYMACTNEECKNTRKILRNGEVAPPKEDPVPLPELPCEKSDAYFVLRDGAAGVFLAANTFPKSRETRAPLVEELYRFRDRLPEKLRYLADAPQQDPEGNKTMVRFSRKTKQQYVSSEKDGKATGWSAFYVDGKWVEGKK

A word on the IC50: it is the concentration that inhibits the measured activity by half. The MIC is the lowest concentration that inhibits growth of the organism. Regarding `C#CCOCCCCOc1ccc(-c2nc3ccc(-c4nc5ccc(N6CCN(C)CC6)cc5[nH]4)cc3[nH]2)cc1` [DPA 154, 6-(4-methylpiperazin-1-yl)-2′-(4-(4-(prop-2-ynyloxy)butoxy)phenyl)-1H,3′H-2,5′-bibenzo[d]imidazole], the IC50 is 6.63 ± 0.47 µM in assay [1] and more than 50 µM in assay [2]. Also, in the assay with Escherichia coli K12, the MIC fell in the range of 8 to 16 µg/mL (≈ 15 to 29.9 µM).

With `C#CCCCCCCCCCOc1ccc(-c2nc3ccc(-c4nc5ccc(N6CCN(C)CC6)cc5[nH]4)cc3[nH]2)cc1` [DPA 153, 6-(4-methylpiperazin-1-yl)-2′-(4-(undec-10-ynyloxy)phenyl)-1H,3′H-2,5′-bibenzo[d]imidazole], the IC50 in assay [1] was 2.47 ± 0.06 µM; in assay [2], more than 50 µM. In the assay with Escherichia coli K12, the MIC lay in the range of 8 to 16 µg/mL (≈ 13.9 to 27.8 µM).

On to `CN1CCN(c2ccc3[nH]c(-c4ccc5[nH]c(-c6ccc(O)cc6)nc5c4)nc3c2)CC1` [Hoechst 33258, reference compound], for which, in assay [1], the “concentration needed to completely inhibit the activities of E. coli DNA topoisomerase I” value is listed as “approximately 20 μM” and the IC50 turned out to be 19.5 ± 1.32 µM. In addition, in assay [2], the “supercoiled DNA template prevented from relaxation by human DNA topoisomerase I” value is listed as “about 70%” and the IC50 is 22.9 ± 1.55 µM. Also, the “MIC S5 = E. coli K 12” value in the assay on Escherichia coli K12 was 16 µg/mL (≈ 37.7 µM).

For `C#CCOc1ccc(-c2nc3ccc(-c4nc5ccc(N6CCN(C)CC6)cc5[nH]4)cc3[nH]2)cc1` [DPA 151, 6-(4-methylpiperazin-1-yl)-2′-(4-(prop-2-ynyloxy)phenyl)-1H,3′H-2,5′-bibenzo[d]imidazole], in assay [1], the “concentration needed to completely inhibit the activities of E. coli DNA topoisomerase I” value was “approximately 5 μM” and the IC50 amounted to 5.5 ± 0.5 µM. Further, in assay [2], the “supercoiled DNA template prevented from relaxation by human DNA topoisomerase I” value is “about 70%” and the IC50 came to 25.4 ± 2.2 µM. Also, the MIC in the assay with Escherichia coli K12 stood at 8 µg/mL (≈ 17.3 µM).

For `CCOc1ccc(-c2nc3ccc(-c4nc5ccc(N6CCN(C)CC6)cc5[nH]4)cc3[nH]2)cc1` [Hoechst 33342, reference compound], the IC50 is 29.8 ± 2.75 µM in assay [1] and more than 50 µM in assay [2]. For the same molecule, in the assay with Escherichia coli K12, the “MIC S5 = E. coli K 12” value was 8 µg/mL (≈ 17.7 µM).

Take `C#CCCCCOc1ccc(-c2nc3ccc(-c4nc5ccc(N6CCN(C)CC6)cc5[nH]4)cc3[nH]2)cc1` [DPA 152, 2′-(4-(hex-5-ynyloxy)phenyl)-6-(4-methylpiperazin-1-yl)-1H,3′H-2,5′-bibenzo[d]imidazole]: the IC50 is 4.57 ± 0.81 µM in assay [1] and more than 50 µM in assay [2]. Also, the MIC in the assay on Escherichia coli K12 is 8 to 16 µg/mL (≈ 15.9 to 31.7 µM).
